Reference: BindingDB's records for doi:10.1016/j.bmc.2004.09.055 (Crefsip, 2005)

Molecular target: Aspartate--tRNA ligase (Escherichia coli (strain K12), UniProt P21889)
Test: Determination of the Inhibition Type and Constant (Ki)
Conditions: pH 7.5; 37 °C
Procedure: The Km and Kappm for the amino acid substrate were first calculated from Lineweaver-Burk plots. The Ki values were calculated from the Kappm vs [I] plot. The Ki values for the inhibitors with respect for the amino acid substrates were determined by measuring the apparent Km for the amino acid in the presence of saturating concentrations of both ATP and tRNA, and of various fixed concentrations of the inhibitor.

Chain of Aspartate--tRNA ligase (P21889 whole entry): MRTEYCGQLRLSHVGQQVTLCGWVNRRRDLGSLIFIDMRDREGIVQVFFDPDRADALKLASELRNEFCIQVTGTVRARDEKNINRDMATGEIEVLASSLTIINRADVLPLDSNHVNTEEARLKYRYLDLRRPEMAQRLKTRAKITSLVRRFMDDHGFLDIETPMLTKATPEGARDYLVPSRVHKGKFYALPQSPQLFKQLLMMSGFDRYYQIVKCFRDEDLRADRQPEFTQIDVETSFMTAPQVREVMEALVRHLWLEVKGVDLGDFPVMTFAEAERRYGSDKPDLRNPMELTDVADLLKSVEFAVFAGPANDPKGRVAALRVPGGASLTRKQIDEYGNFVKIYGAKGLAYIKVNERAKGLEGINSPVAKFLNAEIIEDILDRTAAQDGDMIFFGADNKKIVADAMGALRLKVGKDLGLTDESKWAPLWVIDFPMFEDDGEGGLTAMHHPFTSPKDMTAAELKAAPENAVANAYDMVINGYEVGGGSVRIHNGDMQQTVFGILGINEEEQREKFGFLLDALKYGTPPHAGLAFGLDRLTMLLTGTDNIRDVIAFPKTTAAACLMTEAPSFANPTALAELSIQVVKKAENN

Ki | Structure (SMILES)
15 nM | Nc1ncnc2c1ncn2[C@@H]1O[C@H](COS(=O)(=O)NC(=O)C(N)CC(=O)O)[C@@H](O)[C@H]1O (stereo partly drawn) [3-amino-4-[({[(2R,3S,4R,5R)-5-(6-amino-9H-purin-9-yl)-3,4-dihydroxyoxolan-2-yl]methoxy}sulfonyl)amino]-4-oxobutanoic acid]
123 nM | Nc1ncnc2c1ncn2[C@@H]1O[C@H](COP(=O)(O)CC(=O)C(N)CC(=O)O)[C@@H](O)[C@H]1O (stereo partly drawn) [3-amino-5-({[(2R,3S,4R,5R)-5-(6-amino-9H-purin-9-yl)-3,4-dihydroxyoxolan-2-yl]methoxy}(hydroxy)phosphoryl)-4-oxopentanoic acid]

Structure (SMILES) | Ki
Nc1ncnc2c1ncn2[C@@H]1O[C@H](COP(=O)(O)OC[C@@H](N)CC(=O)O)[C@@H](O)[C@H]1O [(3S)-3-amino-4-[({[(2R,3S,4R,5R)-5-(6-amino-9H-purin-9-yl)-3,4-dihydroxyoxolan-2-yl]methoxy}(hydroxy)phosphoryl)oxy]butanoic acid] | 45000 nM
